Patent US8426179B2, “Synthetic peptide and peptide conjugates and related tissue coupling methods via transglutaminase enzyme” (priority 2007, dated 2013)

Columns and labels:
[1] = test system: articular surface of cartilage; experiment: Coupling of hydrocortisone prodrugs to the articular surface of cartilage via tTG; type: biochemical, bovine; settings: 1.0 mM prodrug with tTG, immunohistochemistry and quantification
Experimental: Modified tissue samples were immersed in tissue freezing media and frozen at −80° C. until use. Tissue slices (25 μm thick) were cut using a cryostat (Microm HM505N, Carl Zeiss) and the freezing media was removed with 3 washes of Buffer 1. Blocking was performed with 4% goat serum in Buffer 1 (blocking buffer) for 1 hour at room temperature. The tissue sections were then incubated with 10 μg/mL mouse anti-hydrocortisone antibody for 1.5 h in the blocking buffer at room temperature, rinsed 3 times with Buffer 1 for 5 minutes each, and then incubated with fluorescein conjugated goat anti-mouse antibody (1/200) in blocking buffer for 1 hour. Samples were rinsed again with Buffer 1 and then imaged using a Leica epifluorescent microscope (λex=495 nm, λem=520 nm for fluorescein) and a SPOT RT digital camera (Diagnostic Instruments, Sterling Heights, Mich.).

[2] = Hydrolysis of the hydrocortisone prodrugs in solution (buffers); type: physicochemical; settings: Buffer 1, 4° C.
Experimental: This solution also contained 2 mM 6α-methyl prednisolone as an internal standard. The samples were then stored at −20° C. until analyzed with RP-HPLC and eluted with a linear gradient of 24-55% acetonitrile in water with 0.1% TFA. The amount of hydrocortisone hydrolyzed from the prodrug was determined by comparing its peak area to that of 6α-methyl prednisolone. […] Thirty microliter samples were collected at 10, 20, 30, and 60 minutes and analyzed as previously described.

For hydrocortisone-GFKG-PEG [TRIP-PC], the “bound hydrocortisone, TRIP-C compared with TRIP-PC” value [1] was “no detectable difference in bound hydrocortisone” and the T50% of hydrolysis [2] was 57.8 h.
